This passage reports IC50 results from patent publication US11679108B2, “Aromatic heterocyclic compound, and pharmaceutical composition and use thereof” (GUANGZHOU HENOVCOM BIOSCIENCE CO., LTD., priority 2018, dated 2023).

For assay [1], the target named is ATX (Homo sapiens, UniProt Q13822). As to the kind of experiment: Analysis in vitro: LPC was used as substrate for screening enzyme activity (Amplex Red fluorescence). The assay is classed as biochemical. As to conditions: inhibitory activity against ATX, with LPC as substrate. A digest of the protocol: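 ATX lysoPLD activity was measured by coupled detection: LPC hydrolysis releases choline, which choline oxidase/HRP convert to an Amplex Red fluorescent signal (ex 530/em 590 nm). The enzyme mix (2 ng/μl ATX, 2 U/ml HRP, 0.2 U/ml choline oxidase) was combined with the substrate mix ([…], 400 μM Amplex Red) and 10-point threefold compound dilutions for 30 min. IC50 was derived from the inhibition ratio.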

Assay [2] deals with T1, ATX in human plasma (Homo sapiens, UniProt Q13822).
T1 construct: blank plasma was derived from at least 6 individual people; from tissue; host or cells: human plasma (pooled from at least 6 individuals)
As to the kind of experiment: Analysis in vitro: detection of LPA in human plasma for screening activity (LPA 18:2 by LC/MS/MS). The assay is classed as biochemical. As to conditions: incubated 2 hours at 37° C., LPA 18:2 detected by LC/MS/MS. The gist of the method:
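Compounds at 0 to 10 μM were incubated for 2 h at 37° C. under 5% CO2 in pooled human plasma (≥6 donors), with endogenous LPC acting as substrate. LPA 18:2 was quantified by LC/MS/MS with an LPA 17:0 internal standard after methanol precipitation. IC50 values came from residual activity relative to compound-free plasma across 8 points of a 3-fold dilution series.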

Consider `CCc1nc2sc(N3CCC4(CC3)CN(C(N)=O)C4)nn2c1N(C)c1nc(-c2ccc(F)cc2)c(C#N)s1` [Example 8], for which the IC50 in assay [1] and in assay [2] was 100 to 500 nM in each case.
Turning to `CCc1nc2sc(N3CCC(N(C)S(C)(=O)=O)C3)nn2c1N(C)c1nc(-c2ccc(F)cc2)c(C#N)s1` (stereo not shown) [Example 10, N-{1-[5-((5-cyano-4-(4-fluorophenyl)thiazol-2-yl)(methyl)amino)-6-ethylimidazo[2,1-b][1,3,4]thiadiazol-2-yl}pyrrolidin-3-yl]-N-methylmethanesulfonamide], the IC50 in assay [1] and in assay [2] was 0.01 to 100 nM throughout.
Regarding `CCc1nc2sc(N3CCC(N(C)CC(=O)N4CC(O)C4)C3)nn2c1N(C)c1nc(-c2ccc(F)cc2)c(C#N)s1` (stereo not shown) [Example 11], the half-inhibitory concentration (IC50) in assay [1] and in assay [2] was 0.01 to 100 nM each time.
With `CCc1nc2sc(N3CCC(N(C)C(N)=O)C3)nn2c1N(C)c1nc(-c2ccc(F)cc2)c(C#N)s1` (stereo not shown) [Example 12, 1-{1-[5-((5-cyano-4-(4-fluorophenyl)thiazol-2-yl)(methyl)amino)-6-ethylimidazo[2,1-b][1,3,4]thiadiazol-2-yl]pyrrolidin-3-yl}-1-methylurea], the concentration for half-maximal inhibition (IC50) in assay [1] and in assay [2] was 0.01 to 100 nM in each case.
As for `CCc1nc2sc(N3CCCC(N(C)CC(=O)N4CC(O)C4)C3)nn2c1N(C)c1nc(-c2ccc(F)cc2)c(C#N)s1` (stereo not shown) [Example 14], the IC50 in assay [1] and in assay [2] was 0.01 to 100 nM throughout.
Take `CCc1nc2sc(N3CCCC(N(C)C(N)=O)C3)nn2c1N(C)c1nc(-c2ccc(F)cc2)c(C#N)s1` (stereo not shown) [Example 15, 1-{1-[5-((5-cyano-4-(4-fluorophenyl)thiazol-2-yl)(methyl)amino)-6-ethylimidazo[2,1-b][1,3,4]thiadiazol-2-yl]piperidin-3-yl}-1-methylurea]: the IC50 in assay [1] and in assay [2] was 0.01 to 100 nM each time.
For the molecule `CCc1nc2sc(C3CCN(CC(=O)N4CC(O)C4)CC3)nn2c1N(C)c1nc(-c2ccc(F)cc2)c(C#N)s1` [Example 17, 2-{[6-ethyl-2-(1-(2-(3-hydroxyazetidin-1-yl)-2oxoethyl)piperidin-4-yl)imidazo[2,1-b][1,3,4]thiadiazol-5-yl](methyl)amino}-4-(4-fluorophenyl)thiazole-5-carbonitrile], the figures for the IC50 in assay [1] and in assay [2] were 100 to 500 nM and 0.01 to 100 nM, respectively.
Take `CCc1nc2sc(N3CC[C@@H](N(C)C(N)=O)C3)nn2c1N(C)c1nc(-c2ccc(F)cc2)c(C#N)s1` [Example 19, (R)-1-{1-[5-((5-cyano-4-(4-fluorophenyl)thiazol-2-yl)(methyl)amino)-6-ethylimidazo[2,1-b][1,3,4]thiadiazol-2-yl]pyrrolidin-3-yl}-1-methylurea]: the figures for the IC50 in assay [1] and in assay [2] were 0.01 to 100 nM and 100 to 500 nM, respectively.
On the same counts, the results for `CCc1nc2sc(N3CC[C@H](N(C)C(N)=O)C3)nn2c1N(C)c1nc(-c2ccc(F)cc2)c(C#N)s1` [Example 20, (S)-1-{1-[5-((5-cyano-4-(4-fluorophenyl)thiazol-2-yl)(methyl)amino)-6-ethylimidazo[2,1-b][1,3,4]thiadiazol-2-yl]pyrrolidin-3-yl}-1-methylurea] are 0.01 to 100 nM and 0.01 to 100 nM.
As to `CCc1nc2sc(N3CC[C@@H](N(C)CC(=O)N4CC(O)C4)C3)nn2c1N(C)c1nc(-c2ccc(F)cc2)c(C#N)s1` [Example 21, (R)-2-{[6-ethyl-2-(3-((2-(3-hydroxyazetidin-1-yl)-2-oxoethyl)(methyl)amino)pyrrolidin-1-yl)imidazo[2,1-b][1,3,4]thiadiazol-5-yl](methyl)amino}-4-(4-fluorophenyl)thiazole-5-carbonitrile], the IC50 in assay [1] and in assay [2] was 0.01 to 100 nM in each case.
As for `CCc1nc2sc(N3CC[C@H](N(C)CC(=O)N4CC(O)C4)C3)nn2c1N(C)c1nc(-c2ccc(F)cc2)c(C#N)s1` [Example 22, (S)-2-{[6-ethyl-2-(3-((2-(3-hydroxyazetidin-1-yl)-2oxoethyl)(methyl)amino)pyrrolidin-1-yl)imidazo[2,1-b][1,3,4]thiadiazol-5-yl](methyl)amino}-4-(4-fluorophenyl)thiazole-5-carbonitrile], the IC50 in assay [1] and in assay [2] was 0.01 to 100 nM in each case.
